Reference: patent US9328129B2, “Peptidomimetic inhibitors of PSMA” (Washington State University, priority 2010, dated 2016)

Legend:
PSMA = biological target: T1, PSMA (Homo sapiens, UniProt Q04609); experiment: Competitive binding experiments: preincubation with unlabeled CTT-54 before the radiolabeled probe; assay type: cell-based; details: 0 nM CTT-54, probe 2 hours
T1 construct: endogenous in cells; host or cells: LNCaP

[1] = tested on: LNCaP PSMA+ tumor xenografts; experiment: Biodistribution of the 99mTc-labeled probe in mice bearing LNCaP and PC3 tumor xenografts; assay type: in vivo, mouse; details: LNCaP PSMA+ tumor xenograft, 4 hours following tail-vein injection
Description: Both PSMA+ (LNCaP) and PSMA− (PC3) tumor xenografts were implanted in opposite rear flanks of each mouse. Thus, each mouse served as both a positive and negative control.

LNCaP (PSMA+) cells [2] = experiment: Uptake of 99mTc-labeled DTPA-SCN-CTT-54 by cells, as percentage of total probe applied; assay type: cell-based
Experimental: (§1) Both LNCaP (PSMA+) and PC3 (PSMA−) cells were treated with DTPA-SCN-CTT-54 labeled with pertechnetate (^99mTcO4^−) reduced with SnCl2. At increasing time points at 37° C., cells were washed free of the probe and uptake was determined as a percentage of the total amount of probe applied.

LNCaP (PSMA+) cells [3] = experiment: Extent of internalization of the 99mTc-labeled probe; assay type: cell-based
Experimental: as §1

T1 sequence (Q04609 whole entry): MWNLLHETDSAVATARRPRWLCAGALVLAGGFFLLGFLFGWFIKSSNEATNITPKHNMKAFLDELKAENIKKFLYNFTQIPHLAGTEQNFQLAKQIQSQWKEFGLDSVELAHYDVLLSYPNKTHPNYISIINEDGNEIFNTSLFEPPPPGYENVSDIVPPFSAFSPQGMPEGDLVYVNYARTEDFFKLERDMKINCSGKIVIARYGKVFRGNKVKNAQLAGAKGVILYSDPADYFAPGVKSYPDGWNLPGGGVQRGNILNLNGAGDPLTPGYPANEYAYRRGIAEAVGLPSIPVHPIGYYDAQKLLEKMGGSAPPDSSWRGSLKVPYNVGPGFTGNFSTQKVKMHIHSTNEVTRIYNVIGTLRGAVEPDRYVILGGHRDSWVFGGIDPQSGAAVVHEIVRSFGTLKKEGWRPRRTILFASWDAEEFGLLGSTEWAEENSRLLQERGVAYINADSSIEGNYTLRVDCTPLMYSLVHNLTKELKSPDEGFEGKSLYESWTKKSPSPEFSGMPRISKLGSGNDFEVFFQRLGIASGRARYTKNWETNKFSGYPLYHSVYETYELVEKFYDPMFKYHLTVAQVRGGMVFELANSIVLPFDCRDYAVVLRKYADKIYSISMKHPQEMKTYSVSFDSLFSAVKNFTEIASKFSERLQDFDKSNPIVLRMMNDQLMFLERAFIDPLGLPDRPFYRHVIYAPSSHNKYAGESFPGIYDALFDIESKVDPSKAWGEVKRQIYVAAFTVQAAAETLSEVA

| Compound | % Uptake of the radiolabeled probe without competitor (PSMA) [%] | uptake in tumor xenografts (biodistribution) [1] | time for binding to the cell surface (LNCaP (PSMA+) cells [2]) [min] | % uptake (LNCaP (PSMA+) cells [2]; 30 min) [%] | % uptake (LNCaP (PSMA+) cells [2]; 2 hr) [%] | % uptake (LNCaP (PSMA+) cells [2]; 4 hr) [%] | uptake (LNCaP versus PC3 cells) (LNCaP (PSMA+) cells [2]; labeled with pertechnetate (99mTcO4−) reduced with SnCl2, increasing time points at 37° C.) | % internalization (LNCaP (PSMA+) cells [3]; 30 min) [%] | % internalization (LNCaP (PSMA+) cells [3]; 2 hr) [%] | % internalization (LNCaP (PSMA+) cells [3]; 4 hr) [%] | extent of internalization of the probe (LNCaP (PSMA+) cells [3]; preliminary studies) | internalization (LNCaP (PSMA+) cells [3]; within 30 min) |
| --- | --- | --- | --- | --- | --- | --- | --- | --- | --- | --- | --- | --- |
| O=C(O)CC[C@H](NP(=O)(O)OC[C@H](NC(=O)CC[C@H](NC(=S)Nc1ccc(CC(CN(CCN(CC(=O)O)CC(=O)O)CC(=O)O)N(CC(=O)O)CC(=O)O)cc1)C(=O)O)C(=O)O)C(=O)O (stereo partly drawn) [DTPA-SCN-CTT-54, N-{[(4-{2-[bis(carboxymethyl)amino]-3-[{2-[bis(carboxymethyl)amino]ethyl} (carboxymethyl)amino]propyl}phenyl)amino]carbonothioyl}-L-γ-glutamyl-O-[{[(1S)-1,3-dicarboxypropyl]amino} (hydroxy)phosphoryl]-L-serine] | 4.46 |  |  |  |  |  |  |  |  |  |  |  |
| O=C(O)CC[C@H](NP(=O)(O)OC[C@H](NC(=O)CC[C@H](NC(=S)Nc1ccc(CC(CN(CCN(CC(=O)O)CC(=O)O)CC(=O)O)N(CC(=O)O)CC(=O)O)cc1)C(=O)O)C(=O)O)C(=O)O (stereo partly drawn) (99mTc complex, metal not drawn) [DTPA-SCN-CTT-54, N-{[(4-{2-[bis(carboxymethyl)amino]-3-[{2-[bis(carboxymethyl)amino]ethyl} (carboxymethyl)amino]propyl}phenyl)amino]carbonothioyl}-L-γ-glutamyl-O-[{[(1S)-1,3-dicarboxypropyl]amino} (hydroxy)phosphoryl]-L-serine] |  | substantial uptake | ≤ 30 | 2.30 | 2.94 | 2.34 | exclusive for LNCaP cells | 71.9 | 71.0 | 79.5 | greater than 80% | greater than 70% |
